Here are results for 23 compounds from PubChem BioAssay AID248 (DTP/NCI, 2004).

For this experiment, the system named is L1210 leukemia ip in BDF1 mice, survival T/C. Briefly: NCI In Vivo Anticancer Drug Screen. Data for tumor model L1210 Leukemia (intraperitoneal) in B6D2F1 (BDF1) mice. The conditions noted are these: endpoint: mean survival time, higher = longer survival. An outline of the steps: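 Antitumor effect is assessed in tumor-bearing animals. Survival in the compound arm is compared with a vehicle-dosed control arm and expressed as their quotient.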

Setting [1] is: dose: 50.0 mg/kg/injection, schedule: Q01DX009 (ip), vehicle: Klucel (hydroxypropylcellulose) (HPC).
The mark [2] stands for this setting: dose: 100.0 mg/kg/injection, schedule: Q01DX009 (ip), vehicle: Klucel (hydroxypropylcellulose) (HPC).
Setting [3] is: dose: 100.0 mg/kg/injection, schedule: Q04DX003 (ip), vehicle: Klucel (hydroxypropylcellulose) (HPC).
The mark [4] stands for this setting: dose: 200.0 mg/kg/injection, schedule: Q01DX009 (ip), vehicle: Klucel (hydroxypropylcellulose) (HPC).
[5] abbreviates: dose: 200.0 mg/kg/injection, schedule: Q04DX003 (ip), vehicle: Klucel (hydroxypropylcellulose) (HPC).
The mark [6] stands for this setting: dose: 400.0 mg/kg/injection, schedule: Q04DX003 (ip), vehicle: Klucel (hydroxypropylcellulose) (HPC).
Setting [7] is: dose: 100.0 mg/kg/injection, schedule: Q01DX001 (ip), vehicle: carboxymethylcellulose (CMC).
Where [8] appears, read: dose: 200.0 mg/kg/injection, schedule: Q01DX001 (ip), vehicle: carboxymethylcellulose (CMC).
[9] abbreviates: dose: 400.0 mg/kg/injection, schedule: Q01DX001 (ip), vehicle: carboxymethylcellulose (CMC).
[10] abbreviates: dose: 400.0 mg/kg/injection, schedule: Q01DX009 (ip), vehicle: Klucel (hydroxypropylcellulose) (HPC).
[11] abbreviates: dose: 100.0 mg/kg/injection, schedule: Q01DX009 (ip), vehicle: saline with Tween-80.
[12] abbreviates: dose: 200.0 mg/kg/injection, schedule: Q01DX009 (ip), vehicle: saline with Tween-80.
The mark [13] stands for this setting: dose: 400.0 mg/kg/injection, schedule: Q01DX009 (ip), vehicle: saline with Tween-80.
Setting [14] is: dose: 100.0 mg/kg/injection, schedule: Q01DX001 (ip), vehicle: saline.
Where [15] appears, read: dose: 200.0 mg/kg/injection, schedule: Q01DX001 (ip), vehicle: saline.
[16] abbreviates: dose: 400.0 mg/kg/injection, schedule: Q01DX001 (ip), vehicle: saline.

The structures appear in SMILES notation. Values joined by “and” are separate entries in the source; they are usually repeats but may differ in a detail not shown here. Equal entries are not always repeated. Inconclusive results and toxic doses are left out.

`N#Cc1nn(CCCl)c(=O)c2ccccc12`: the T/C runs as follows: (dose: 100.0 mg/kg/injection, schedule: Q01DX001 (ip), vehicle: alcohol) 98 % of control; (dose: 100.0 mg/kg/injection, schedule: Q04DX003 (ip), vehicle: alcohol) 95 % of control; (dose: 200.0 mg/kg/injection, schedule: Q01DX001 (ip), vehicle: alcohol) 107 % of control; (dose: 200.0 mg/kg/injection, schedule: Q04DX003 (ip), vehicle: alcohol) 97 % of control; (dose: 400.0 mg/kg/injection, schedule: Q01DX001 (ip), vehicle: alcohol) 107 % of control; (dose: 400.0 mg/kg/injection, schedule: Q04DX003 (ip), vehicle: alcohol) 87 % of control.

Take `COC(=O)c1ccc(C)c(-n2c(-c3ccccc3)nnc2-c2ccccc2)c1`: the T/C is, setting by setting: under setting [1], 102 % of control; under setting [2], 93 % of control; under setting [3], 95 % of control; under setting [4], 95 % of control; under setting [5], 92 % of control; under setting [6], 97 % of control.

`CNC(=O)NC1C(CO)OC2OC(C)(C)OC21` (stereo not drawn): the T/C is 100 % of control (dose: 100.0 mg/kg/injection, schedule: Q04DX002 (ip), vehicle: saline); 97 % of control (dose: 200.0 mg/kg/injection, schedule: Q04DX002 (ip), vehicle: saline); 94 % of control (dose: 400.0 mg/kg/injection, schedule: Q04DX002 (ip), vehicle: saline).

With `O=C(Nc1ccccc1)c1ccc(C(=O)Nc2ccccc2)cc1`, the T/C reads like this: under setting [7], 86 % of control; (dose: 100.0 mg/kg/injection, schedule: Q01DX001 (oral), vehicle: carboxymethylcellulose (CMC)) 108 % of control; (dose: 100.0 mg/kg/injection, schedule: Q01DX009 (ip), vehicle: carboxymethylcellulose (CMC)) 101 % of control; (dose: 100.0 mg/kg/injection, schedule: Q01DX009 (oral), vehicle: carboxymethylcellulose (CMC)) 103 % of control; under setting [8], 87 % of control; (dose: 200.0 mg/kg/injection, schedule: Q01DX001 (oral), vehicle: carboxymethylcellulose (CMC)) 108 % of control. In addition, the T/C by setting is: (dose: 200.0 mg/kg/injection, schedule: Q01DX009 (ip), vehicle: carboxymethylcellulose (CMC)) 100 % of control; (dose: 200.0 mg/kg/injection, schedule: Q01DX009 (oral), vehicle: carboxymethylcellulose (CMC)) 105 % of control; under setting [9], 87 % of control; (dose: 400.0 mg/kg/injection, schedule: Q01DX001 (oral), vehicle: carboxymethylcellulose (CMC)) 104 % of control; (dose: 400.0 mg/kg/injection, schedule: Q01DX009 (ip), vehicle: carboxymethylcellulose (CMC)) 95 % of control; (dose: 400.0 mg/kg/injection, schedule: Q01DX009 (oral), vehicle: carboxymethylcellulose (CMC)) 111 % of control. The T/C is, setting by setting: (dose: 800.0 mg/kg/injection, schedule: Q01DX001 (ip), vehicle: carboxymethylcellulose (CMC)) 92 % of control; (dose: 800.0 mg/kg/injection, schedule: Q01DX001 (oral), vehicle: carboxymethylcellulose (CMC)) 106 % of control; (dose: 800.0 mg/kg/injection, schedule: Q01DX009 (ip), vehicle: carboxymethylcellulose (CMC)) 97 % of control.

Turning to `Cc1cn(-c2ccccc2)c(C)c(C(=O)O)c1=O`, the T/C is 101 % of control (dose: 100.0 mg/kg/injection, schedule: Q01DX001 (ip), vehicle: other); 102 % of control (dose: 200.0 mg/kg/injection, schedule: Q01DX001 (ip), vehicle: other); 91 % of control (dose: 400.0 mg/kg/injection, schedule: Q01DX001 (ip), vehicle: other).

As for `Clc1ccc(C2SCCS2)c(Cl)c1`, the T/C is, setting by setting: under setting [2], 105 % of control; under setting [4], 108 % of control; under setting [10], 124 % of control.

In the case of `CC(=O)Oc1cccc(OC(=O)Nc2ccccc2F)c1`, the T/C is, setting by setting: (dose: 25.0 mg/kg/injection, schedule: Q01DX009 (ip), vehicle: saline with Tween-80) 103 % of control; (dose: 50.0 mg/kg/injection, schedule: Q01DX009 (ip), vehicle: saline with Tween-80) 108 % of control; under setting [11], 103 % of control and 113 % of control; under setting [12], 95 % of control and 103 % of control.

Take `CC(=O)CC1(O)C(=O)Nc2ccccc21` (stereo not drawn): the T/C under setting [2] was 101 % of control, the T/C under setting [4] was 95 % of control and the T/C under setting [10] is 98 % of control.

`CCC(=O)Nc1ccc(C)cc1C`: the T/C is 92 % of control under setting [2]; 97 % of control under setting [3]; 94 % of control under setting [4]; 107 % of control under setting [5]; 96 % of control under setting [6].

`Cc1ccc(S(=O)(=O)N/N=C/N(C)C)cc1`: the T/C under setting [2] was 91 % of control; the T/C under setting [3] was 102 % of control; the T/C under setting [4] was 98 % of control; the T/C under setting [5] was 103 % of control; the T/C under setting [10] is 96 % of control; the T/C under setting [6] was 97 % of control.

For `O=C1C(=O)C2(O)C(=O)C12O` (stereo not drawn), the T/C (dose: 100.0 mg/kg/injection, schedule: Q04DX003 (ip), vehicle: saline) was 91 % of control.

As for `CNC(=O)N(CCC#N)C1CCCCC1`, the T/C was 104 % of control (dose: 100.0 mg/kg/injection, schedule: Q04DX003 (ip), vehicle: other); 106 % of control (dose: 200.0 mg/kg/injection, schedule: Q04DX003 (ip), vehicle: other); 96 % of control (dose: 400.0 mg/kg/injection, schedule: Q04DX003 (ip), vehicle: other).

For `O=C(CNC(=O)c1ccc(Cl)c(Cl)c1)N/N=C/c1ccc(Cl)cc1`, the T/C is 93 % of control under setting [1], 88 % of control under setting [2] and 98 % of control under setting [4].

With `CN=C(NCCc1ccccc1)c1ccc(NC(=O)c2ccc(C(=O)Nc3ccc(C(=NC)NCCc4ccccc4)cc3)cc2)cc1`, the T/C (dose: 3.75 mg/kg/injection, schedule: Q01DX Z (ip), vehicle: saline) is 102 % of control and the T/C (dose: 7.5 mg/kg/injection, schedule: Q01DX Z (ip), vehicle: saline) is 105 % of control.

On to `Cc1ccc(NC(=O)Oc2ccc(-c3ccccc3)cc2)cc1NC(=O)Oc1ccc(-c2ccccc2)cc1`, for which the T/C under setting [11] was 91 % of control and the T/C under setting [13] was 96 % of control.

For `CC(=O)Nc1cc2c3ccccc3ccc2c2ccccc12`, the T/C under setting [7] is 87 % of control.

For the compound `CCCCCCC(C)OC(=O)CCSCCC(=O)OC(C)CCCCCC` (stereo not drawn), the T/C was 98 % of control under setting [14], 94 % of control under setting [15] and 86 % of control under setting [16].

For the compound `CSc1cc2c(cc1NC(C)=O)Cc1cc(F)ccc1-2`, the T/C runs as follows: under setting [7], 98 % of control; under setting [8], 101 % of control; under setting [9], 95 % of control.

Turning to `O=[N+]([O-])c1ccc(N/N=C(\CBr)c2ccccc2)c([N+](=O)[O-])c1`, the T/C under setting [11] was 94 % of control, the T/C under setting [12] is 95 % of control and the T/C under setting [13] was 94 % of control.

For `Cc1ccc(S(=O)(=O)NC(=O)N2CCCC2)cc1`, the T/C reads like this: (dose: 50.0 mg/kg/injection, schedule: Q01DX001 (ip), vehicle: saline) 109 % of control; under setting [14], 97 % of control; under setting [15], 94 % of control; under setting [16], 88 % of control.

Turning to `COc1ccc(OCCS(=O)(=O)C(CCOS(C)(=O)=O)COS(C)(=O)=O)cc1` (stereo not drawn), the T/C runs as follows: under setting [2], 96 % of control; under setting [4], 93 % of control; under setting [10], 98 % of control.

`Oc1ccccc1OCCOCCCl`: the T/C by setting is: (dose: 100.0 mg/kg/injection, schedule: Q04DX002 (sc), vehicle: olive oil, sesame oil, peanut oil) 93 % of control; (dose: 200.0 mg/kg/injection, schedule: Q04DX002 (sc), vehicle: olive oil, sesame oil, peanut oil) 101 % of control; (dose: 400.0 mg/kg/injection, schedule: Q04DX002 (sc), vehicle: olive oil, sesame oil, peanut oil) 246 % of control.

As for `COc1ccc(NCCOc2ccccc2Br)cc1`, the T/C is, setting by setting: (dose: 100.0 mg/kg/injection, schedule: Q01DX009 (ip), vehicle: other) 96 % of control; (dose: 200.0 mg/kg/injection, schedule: Q01DX009 (ip), vehicle: other) 96 % of control; (dose: 400.0 mg/kg/injection, schedule: Q01DX009 (ip), vehicle: other) 104 % of control.
